What all share (type): in vivo, mouse
Series [1] is described as follows: Relative bodyweight in ob/ob AMLN mice. To be noted: 0.3 mmol/kg bw day, 4 weeks treatment, FIG. 11. The procedure:
(§1) ob/ob mice are consistently fibrosis (liver) prone when cholesterol (2%) and 40% fat (containing 18% trans-fatty acids) and 20% fructose are added to a high-caloric diet (i.e., AMLN diet). ob/ob mice on AMLN diet (termed ‘ob/ob AMLN mice’) develop steatohepatitis and fibrosis within a shorter timeframe (<12 weeks) compared with wild-type C57BL/6 mice (AMLN mice) fed the same diet. ob/ob AMLN mice provide an obese diet-induced model of NASH that also allows the study of effects on glycemic control.
(§2) Thirty male ob/ob mice (5 weeks old) were fed the AMLN diet for 15 weeks then randomised into 3 groups of 10 mice/group to receive Compound B or Compound A (both at 0.3 mmol/kg bw day) or no treatment (vehicle) for a further 4 weeks. Assessment of the hepatic expression of key genes regulating plasma lipid concentrations (LDLr), hepatic fibrosis (collA1), bile acid transport/re-uptake (Slc51b and Slc10a2) and inflammation (CD68) was made via RNA sequencing at 4 weeks. To assess the effects of Compound B and Compound A on glycemic control, an oral glucose tolerance test (OGTT) was also performed at 3 weeks. An additional group of mice (n=5) were also treated with a PPAR-γ agonist (pioglitazone, 30 mg/kg bw day) was also included to compare effects upon bodyweight.

Series [2] deals with hepatic expression of key genes. Nature of the series: Hepatic target gene expression via RNA sequencing in ob/ob AMLN mice. The note with it: 0.3 mmol/kg bw day, 4 weeks treatment. The procedure: as §1, §2
The subject of another series is ob/ob AMLN mice. Nature of the series: Glycemic control (oral glucose tolerance test, fasting glucose and insulin) in ob/ob AMLN mice. The note with it: 0.3 mmol/kg bw day. The procedure: as §1
as §2, with “To assess the effects of Compound B and Compound A on glycemic control, an oral glucose tolerance test (OGTT) was also performed at 3 weeks.” left out

For series [3], the system named is C57BL/6 mice. In words: Hepatic steatosis in oral PN diet fed C57BL/6 mice, initial experiment (Oil Red O). The note with it: 19 days, 0.3 mmol/kg bw day in MCT by orogastric gavage. An excerpt: (§3) Male C57BL/6 mice, 6 to 8 weeks old at initiation of the experiments, were used for all experimental groups. Mice were fed either an ad libitum diet of standard rodent chow (calorie composition: 26% protein, 14% fat, 60% carbohydrates) and water or a parenteral nutrition (PN) solution that mimics the PN diet used in neonatal intensive care units. The PN solution was a fat-free, high-carbohydrate liquid diet (20% dextrose, 2% essential and nonessential amino acids, 0.2% pediatric trace elements, 0.5% pediatric multivitamins, 30 mEq of sodium, 20 mEq of potassium, 15 mEq of calcium (as calcium gluconate), 10 mEq of magnesium, 10 mEq of phosphate, 5 mEq of acetate, and 30 mEq of chloride per liter) administered as a single 50 mL bottle per cage which mice consumed ad libitum. […] Prince et al., JPEN J Parenter Enteral Nutr., 2014; 38(5): 608-616.
In the initial experiment, only Compound A was tested. The results of this experiment are described in Example 14.
Male C57BL/6 mice, 6 weeks old at initiation of experiments, were divided into three groups (10 mice per group). One group was fed an ad libitum diet of standard rodent chow and water. The group fed standard rodent chow received no additional treatments during the experimental period and served as a negative control group. The two other groups were fed the above-described PN diet. […]

The test system of series [4] is C57BL/6 mice. Nature of the series: Hepatic steatosis and organ mass in oral PN diet fed C57BL/6 mice, subsequent experiment at two dosages (H&E). The note with it: 19 days.
Text: as §3
In a subsequent experiment, both Compound A and Compound B were tested at two dosages. The results of this experiment are described in Example 15.
Male C57BL/6 mice, 6 to 8 weeks old at initiation of the experiments, were used for all experimental groups. One group was fed an ad libitum diet of standard rodent chow and water. The group fed standard rodent chow received no additional treatments during the experimental period and served as a negative control group. Seven other groups (10 mice per group) were fed the PN solution described above ad libitum.
Of the seven groups that received the PN diet, each group received one of the following orogastric protocols administered every other day over 19 days: • (1) Saline: saline solution administered isovolumetric with the Omegaven® group; • (2) MCT: medium-chain triglyceride oil (MCT) (Nestle™ HealthCare Nutrition, Florham Park, NJ), at a dose of 7.4 g of fat/kg body weight; • (3) Omegaven®: Omegaven® (commercial fish oil lipid emulsion) at a dose of 2.4 g fat/kg body weight; • (4) Compound A LOW: Compound A at a dose of 0.3 mmol/kg bw day (diluted in MCT to 0.0375 mmol/mL, resulting in administration of 7.4 g of MCT/kg weight); • (5) Compound A HI: Compound A at a dose of 0.6 mmol/kg bw day (diluted in MCT to 0.075 mmol/mL, resulting in administration of 7.4 g of MCT/kg weight); • (6) Compound B LOW: Compound B at a dose of 0.3 mmol/kg bw day (diluted in MCT to 0.0375 mmol/mL, resulting in administration of 7.4 g of MCT/kg weight); and • (7) Compound B HI: Compound B at a dose of 0.6 mmol/kg bw day (diluted in MCT to 0.075 mmol/mL, resulting in administration of 7.4 g of MCT/kg weight).
After 19 days of treatment, organs were harvested, including the liver, kidney, and spleen, which were analyzed for relative weight between each group. Livers were also fixed and frozen on dry ice, then stored at −80° C. for hematoxylin and eosin (H&E) stain analysis and Oil Red O analysis.

Setting [5] is: oral PN diet, high and low dosages, FIG. 18.

With `CCCCCOc1cccc(C(=O)O)c1C` [Compound A, 2-methyl-3-(pentyloxy)benzoic acid], the “relative bodyweight versus vehicle” value in series [1] is “significantly decreased”. For the same molecule, the “hepatic expression of Coll al (collagen1a1) versus vehicle” value in series [2] (FIG. 5) is “significantly reduce”. Besides, the “hepatic expression of Slc10a2 versus vehicle” value in series [2] (FIG. 6) is recorded as “significantly decreases”. For the same molecule, the “hepatic expression of Slc51b versus vehicle” value in series [2] (FIG. 7) is on record as “significantly decreases”. Also, in series [2] (FIG. 8), the “hepatic expression of ABCC2 versus vehicle” value is on record as “significantly increases”. In addition, the “hepatic expression of CYP7A1” value in series [2] (FIG. 9) was “reduces”. In series [2] (FIG. 10), the “hepatic expression of CD68 versus vehicle” value is “significantly decreases”. Also, the “expression of hepatic LDLr versus vehicle” value in series [2] (FIG. 12) is “significantly increase”. In addition, in the series on ob/ob AMLN mice (after 3 weeks treatment, FIG. 1), the “total plasma glucose (area-under-the-curve from 0-240 mins) versus vehicle in response to an oral glucose load” value is recorded as “significantly reduce”. In the series with ob/ob AMLN mice (after 3 weeks treatment, FIG. 2), the “plasma glucose at 30- and 60-mins versus vehicle in response to an oral glucose load” value was “significantly reduce”. The “fasting plasma insulin versus vehicle” value in the series with ob/ob AMLN mice (after 4 weeks treatment, FIG. 3) was “reduce”. For the same molecule, in the series on ob/ob AMLN mice (after 4 weeks treatment, FIG. 4), the “fasting plasma glucose versus vehicle” value is on record as “significantly reduce”. Moreover, in the series with C57BL/6 mice [3] (FIG. 13), the “development of steatosis induced by an oral PN diet (Red Oil O stain in isolated liver sections)” value is listed as “prevented the development of steatosis”. Also, in the series with C57BL/6 mice [3] (oral PN diet), the liver architecture entry is “Normal liver architecture”. The “development of steatosis induced by an oral PN diet (H&E stain in isolated liver sections)” value in the series with C57BL/6 mice [4] (0.3 and 0.6 mmol/kg bw day in MCT by orogastric gavage, FIGS. 14-17) is listed as “prevented the development of steatosis”. In the series with C57BL/6 mice [4] (setting [5]), the “body mass vs chow-fed or PN-fed saline groups” value is “not significantly different”, the “liver/body mass vs chow-fed or PN-fed saline groups” value is “not significantly different” and the “spleen/body mass vs chow-fed or PN-fed saline groups” value is listed as “not significantly different”.

For the origin of these results see patent publication US12473249B2, “Aromatic compounds and pharmaceutical uses thereof” (BASF AS, priority 2018, dated 2025).
